According to patent publication US8592367B2, “Nodule specific medicago peptides having antimicrobial activity and pharmaceutical compositions containing the same” (priority 2009, dated 2013):

Assays:
[1] = system: Pseudomonas syringae pv tomato DC3000; test: PI staining, broad spectrum activity; type: cell-based; conditions: 50 μg/ml
[2] = system: Pseudomonas syringae pv tomato DC3000; test: CFU determination, broad spectrum activity; type: cell-based; conditions: 50 μg/ml, Pseudomonas syringae pv tomato DC3000, untreated 10^7
[3] = system: Sinorhizobium meliloti AK631; test: PI staining of Sinorhizobium meliloti; conditions: 50 μg/ml, Sinorhizobium meliloti (AK631)
[4] = system: Sinorhizobium meliloti AK631; test: CFU determination of Sinorhizobium meliloti; conditions: 50 μg/ml
Bacillus subtilis [5] = test: PI staining, broad spectrum activity; type: cell-based; conditions: 50 μg/ml
[6] = system: Curtobacterium, flaccumfaciens; test: PI staining, broad spectrum activity; type: cell-based; conditions: 50 μg/ml
Staphylococcus aureus [7] = test: PI staining, broad spectrum activity; type: cell-based; conditions: 50 μg/ml
Bacillus subtilis [8] = test: CFU determination, broad spectrum activity; type: cell-based; conditions: 50 μg/ml, untreated 10^6
Staphylococcus aureus [9] = test: CFU determination, broad spectrum activity; type: cell-based; conditions: 50 μg/ml, untreated 10^6
Clavibacter michigense [10] = test: PI staining, broad spectrum activity; type: cell-based; conditions: 50 μg/ml
Pseudomonas aeruginosa [11] = test: CFU determination, broad spectrum activity; type: cell-based; conditions: 50 μg/ml, Pseudomonas aeruginosa, untreated 10^7
[12] = system: Curtobacterium, flaccumfaciens; test: CFU determination, broad spectrum activity; type: cell-based; conditions: 50 μg/ml, untreated 10^9
Xanthomonas 2880 [13] = test: PI staining, broad spectrum activity; type: cell-based; conditions: 50 μg/ml
[14] = system: Arabidopsis (ecotype: wassilewskiya); test: Arabidopsis germination and seedling growth; conditions: 50 μg/ml=42 μM
Xanthomonas 2880 [15] = test: CFU determination, broad spectrum activity; type: cell-based; conditions: 50 μg/ml, Xanthomonas 2880, untreated 10^7
Clavibacter michigense [16] = test: CFU determination, broad spectrum activity; type: cell-based; conditions: 50 μg/ml, untreated 10^9
Pseudomonas aeruginosa [17] = test: PI staining, broad spectrum activity; type: cell-based; conditions: 50 μg/ml

## Polymyxin B [reference compound]
[1]
  PI: PI: 95%
[2]
  CFU: CFU:0
[3]
  PI: PI: 70%
[4]; 1 hr
  CFU %: 0%
  CFU (colony/ml): 0 colony/ml
[4]; 3 hours, 2-3×10^6 bacteria, FIG. 2B
  CFU determination (colony formation): none formed colony
[4]; Sinorhizobium meliloti (AK631), untreated 10^7
  CFU: CFU: 10^5
Bacillus subtilis [5]
  PI: PI: 60%
[6]
  PI: PI: 60%
Staphylococcus aureus [7]
  PI: PI: 75%
Bacillus subtilis [8]
  CFU: CFU: 10^6
Staphylococcus aureus [9]
  CFU: CFU: 10^6
Clavibacter michigense [10]
  PI: PI: 60%
Pseudomonas aeruginosa [11]
  CFU: CFU: 0
[12]
  CFU: CFU: 0
Xanthomonas 2880 [13]
  PI: PI: 100%
[14]
  effect on plant growth: inhibits growth
Xanthomonas 2880 [15]
  CFU: CFU: 0
Clavibacter michigense [16]
  CFU: CFU: 0
Pseudomonas aeruginosa [17]
  PI: PI: 50%
